Measured values published in patent publication US9914955B2, “Genetically encoded FRET-based MMP-9 activity biosensor and use thereof” (Instytut Biologii Doświadczalnej im. Marcelego Nenckiego …, priority 2013, dated 2018).

Assays:
[1] = test system: human auto-activating MMP-9; assay: In vitro cleavage of the biosensor in HEK293 lysate by auto-activating MMP-9, western blot; type: biochemical; conditions: inhibitor 25 μM final concentration
[2] = test system: HEK293 cell lysate; assay: Baseline cleavage of the biosensor in untreated HEK293 lysate, western blot; type: biochemical
Protocol: Two days post-transfection HEK293 cells were washed one with PBS, scraped from the plate and lysed for 1 h at 4° C. with the following buffer: 50 mM Tris-Cl pH 7.5, 1% Triton X-100, 10 mM CaCl2, 0.02% NaN3, 1 μM ZnCl2. The lysis was performed without protease inhibitors since it was feared that they might block the activity of our auto-activating MMP-9. The lysate was then centrifuged at 13400 rpm for 15′ at 4° C. to remove cell debris. Equal amount of the cleared lysate were used in the subsequent reactions. […] GM6001 inhibitor was used in 25 μM final concentration. Reactions were stopped at either 30′, 1 h, 4 h or after overnight incubation at 37° C. with the addition of SDS-PAGE Sample Buffer and heating to 100° C. for 10 minutes. Sensor was detected on Western Blot with the anti-GFP antibody.

With `CNC(=O)[C@H](Cc1c[nH]c2ccccc12)NC(=O)[C@@H](CC(=O)NO)CC(C)C` [GM6001] the “effect of inhibitor on biosensor cleavage by auto-activating MMP-9” value [1] was “blocked” and the “effect of inhibitor on baseline cleavage of the biosensor” value [2] was “at least partially, blocked”.
